US8017612B2, “Piperazine compound and use thereof as a HCV polymerase inhibitor” (priority 2006, dated 2011)
Where a name gives a salt, the structure may show the parent alone.

How the values were obtained:
[1] = target: T1, HCV polymerase (NS5B) type 1b (Hepatitis C virus genotype 1b, UniProt P26663); assay: Assay of enzyme (HCV polymerase) inhibitory activity, type 1b enzyme; assay type: biochemical, HCV BK strain (type 1b); settings: HCV polymerase inhibitory activity (IC50), 1b, type 1b enzyme 0.5 μg/ml, 25° C., 60 min
T1 construct: a region encoding NS5B (J Virol 1991 March, 65(3), 1105-13, 544 amino acids after deletion of 47 amino acids on the C-terminal); 6xHis (C); made in house; host or cells: Escherichia coli
Procedure, shortened: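 Rxn: NS5B 1b (BK, ΔC47, His6) 0.5 μg/ml; substrate RNA 5 μg/ml; ATP/GTP/CTP 50 μM, UTP 2 μM + [5,6-3H]UTP; 20 mM Tris pH 7.5, 5 mM MgCl2, 50 mM NaCl, 1 mM EDTA/DTT. 25 °C, 60 min. Stop with TCA/pyrophosphate, filter, scintillation count; IC50 vs. untreated.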

[2] = target: T2, HCV polymerase (NS5B) type 1a (Hepatitis C virus genotype 1a, UniProt P26664); assay: Assay of enzyme (HCV polymerase) inhibitory activity, type 1a enzyme; assay type: biochemical, HCV type 1a (cloned from the blood of patients); settings: HCV polymerase inhibitory activity (IC50), 1a, type 1a enzyme 1.5 μg/ml, 25° C., 60 min
T2 construct: made in house; host or cells: Escherichia coli (by the 'similar method' of the 1b enzyme)
Procedure, shortened: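 NS5B Δ47 C-term His6 (type 1a, 1.5 μg/ml); substrate RNA 5 μg/ml; ATP/GTP/CTP 50 μM, UTP 2 μM + [5,6-3H]UTP; Tris pH 7.5, MgCl2 5 mM; 25° C, 60 min. TCA/pyrophosphate stop, GF/B filter, scintillation. IC50 vs no-compound control.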

Row | SMILES | IC50 [1] [nM] | IC50 [2] [nM]
1 | CC(C)c1ccc(CNC(=O)[C@H]2CN(c3ncc(C(=O)O)s3)CCN2S(=O)(=O)c2ccc(OC(F)(F)F)cc2)cc1 [Example 328, 2-[(R)-3-(4-isopropyl-benzylcarbamoyl)-4-(4-trifluoromethoxy-benzenesulfonyl)-piperazin-1-yl]-thiazole-5-carboxylic acid] | < 100 | < 100
2 | CCCc1ccc(S(=O)(=O)N2CCN(c3ncc(C(=O)O)s3)C[C@@H]2C(=O)NCc2ccc(C(C)C)cc2)cc1 [Example 329, 2-[(R)-3-(4-isopropyl-benzylcarbamoyl)-4-(4-propyl-benzenesulfonyl)-piperazin-1-yl]-thiazole-5-carboxylic acid] | < 100 | < 100
3 | CCCc1ccc(S(=O)(=O)N2CCN(c3nc(C)c(C(=O)OC(C)(C)C)s3)C[C@@H]2C(=O)NCc2ccc(C(C)C)cc2C)cc1 [Example 330, 2-[(R)-3-(4-isopropyl-2-methyl-benzylcarbamoyl)-4-(4-propyl-benzenesulfonyl)-piperazin-1-yl]-4-methyl-thiazole-5-carboxylic acid tert-butyl ester] | 100 to 1000 | > 1000
4 | CCCc1ccc(S(=O)(=O)N2CCN(c3nc(C)c(C(=O)O)s3)C[C@@H]2C(=O)NCc2ccc(C(C)C)cc2C)cc1 [Example 331, 2-[(R)-3-(4-isopropyl-2-methyl-benzylcarbamoyl)-4-(4-propyl-benzenesulfonyl)-piperazin-1-yl]-4-methyl-thiazole-5-carboxylic acid] | < 100 | < 100
5 | CC(C)c1ccc(CNC(=O)[C@H]2CN(C(=O)Nc3nncs3)CCN2S(=O)(=O)c2ccc(C(F)(F)F)cc2)cc1 [Example 332, (R)-4-(4-trifluoromethyl-benzenesulfonyl)-piperazine-1,3-dicarboxylic acid 3-(4-isopropyl-benzylamide) 1-[1,3,4]thiadiazol-2-ylamide] | < 100 | 100 to 1000
6 | CCCc1ccc(S(=O)(=O)N2CCN(c3nc(C)c(C(N)=O)s3)C[C@@H]2C(=O)NCc2ccc(C(C)C)cc2)cc1 [Example 333, (R)-4-(5-carbamoyl-4-methyl-thiazol-2-yl)-1-(4-propyl-benzenesulfonyl)-piperazine-2-carboxylic acid 4-isopropyl-benzylamide] | < 100 | < 100
7 | CCOC(=O)c1nnc(NC(=O)N2CCN(S(=O)(=O)c3ccc(C(F)(F)F)cc3)[C@@H](C(=O)NCc3ccc(C(C)C)cc3)C2)o1 [Example 334, 5-{[(R)-3-(4-isopropyl-benzylcarbamoyl)-4-(4-trifluoromethyl-benzenesulfonyl)-piperazine-1-carbonyl]-amino}-[1,3,4]oxadiazole-2-carboxylic acid ethyl ester] | > 1000 | > 1000
8 | Cc1cc(C(C)C)ccc1CNC(=O)[C@H]1CN(c2nc(C)c(C(=O)O)s2)CCN1S(=O)(=O)c1ccc(C(F)(F)F)cc1 [Example 335, 2-[(R)-3-(4-isopropyl-2-methyl-benzylcarbamoyl)-4-(4-trifluoromethyl-benzenesulfonyl)-piperazin-1-yl]-4-methyl-thiazole-5-carboxylic acid] | < 100 | < 100
9 | Cc1nc(N2CCN(S(=O)(=O)c3ccc(C(F)(F)F)cc3)[C@@H](C(=O)NCc3ccc(C(C)C)cc3)C2)ncc1C(=O)OCc1ccccc1 [Example 336, 2-[(R)-3-(4-isopropyl-benzylcarbamoyl)-4-(4-trifluoromethyl-benzenesulfonyl)-piperazin-1-yl]-4-methyl-pyrimidine-5-carboxylic acid benzyl ester] | > 1000 | > 1000
10 | COC(=O)c1cnc(N2CCN(S(=O)(=O)c3ccc(C(F)(F)F)cc3)[C@@H](C(=O)NCc3ccc(C(C)C)cc3)C2)nc1C [Example 337, 2-[(R)-3-(4-isopropyl-benzylcarbamoyl)-4-(4-trifluoromethyl-benzenesulfonyl)-piperazin-1-yl]-4-methyl-pyrimidine-5-carboxylic acid methyl ester] | 100 to 1000 | > 1000
11 | Cc1nc(N2CCN(S(=O)(=O)c3ccc(C(F)(F)F)cc3)[C@@H](C(=O)NCc3ccc(C(C)C)cc3)C2)ncc1C(=O)O [Example 338, 2-[(R)-3-(4-isopropyl-benzylcarbamoyl)-4-(4-trifluoromethyl-benzenesulfonyl)-piperazin-1-yl]-4-methyl-pyrimidine-5-carboxylic acid] | 100 to 1000 | > 1000
12 | CCCc1ccc(CNC(=O)[C@H]2CN(c3nc(C)c(C(=O)O)s3)CCN2S(=O)(=O)c2ccc(C(F)(F)F)cc2)cc1 [Example 339, 4-methyl-2-[(R)-3-(4-propyl-benzylcarbamoyl)-4-(4-trifluoromethyl-benzenesulfonyl)-piperazin-1-yl]-thiazole-5-carboxylic acid] | < 100 | < 100
13 | Cc1nc(N2CCN(S(=O)(=O)c3ccc(OC(F)(F)F)cc3)[C@@H](C(=O)NCc3ccc(C(C)C)cc3)C2)sc1C(N)=O [Example 340, (R)-4-(5-carbamoyl-4-methyl-thiazol-2-yl)-1-(4-trifluoromethoxy-benzenesulfonyl)-piperazine-2-carboxylic acid 4-isopropyl-benzylamide] | < 100 | < 100
14 | CCCc1ccc(CNC(=O)[C@H]2CN(c3nc(C)c(C(=O)O)s3)CCN2S(=O)(=O)c2ccc(OC(F)(F)F)cc2)c(C)c1 [Example 341, 4-methyl-2-[(R)-3-(2-methyl-4-propyl-benzylcarbamoyl)-4-(4-trifluoromethoxy-benzenesulfonyl)-piperazin-1-yl]-thiazole-5-carboxylic acid] | < 100 | < 100
15 | CC(C)c1ccc(CNC(=O)[C@H]2CN(c3ncc(C(=O)O)cn3)CCN2S(=O)(=O)c2ccc(C(F)(F)F)cc2)cc1 [Example 342, 2-[(R)-3-(4-isopropyl-benzylcarbamoyl)-4-(4-trifluoromethyl-benzenesulfonyl)-piperazin-1-yl]-pyrimidine-5-carboxylic acid] | 100 to 1000 | > 1000
16 | Cc1nc(N2CCN(S(=O)(=O)c3ccc(C(F)(F)F)cc3)[C@@H](C(=O)NCc3ccc(N(C)C)cc3)C2)sc1C(=O)O [Example 343, 2-[(R)-3-(4-dimethylamino-benzylcarbamoyl)-4-(4-trifluoromethyl-benzenesulfonyl)-piperazin-1-yl]-4-methyl-thiazole-5-carboxylic acid] | < 100 | < 100
17 | Cc1nc(N2CCN(S(=O)(=O)c3ccc(C(C)C)cc3)[C@@H](C(=O)NCc3ccc(C(C)C)cc3)C2)sc1C(=O)O [Example 344, 2-[(R)-4-(4-isopropyl-benzenesulfonyl)-3-(4-isopropyl-benzylcarbamoyl)-piperazin-1-yl]-4-methyl-thiazole-5-carboxylic acid] | < 100 | < 100
18 | CC(C)c1ccc(CNC(=O)[C@H]2CN(C3CCNC3=O)CCN2S(=O)(=O)c2ccc(C(F)(F)F)cc2)cc1 (stereo partly drawn) [Example 345, (R)-4-(2-oxo-pyrrolidin-3-yl)-1-(4-trifluoromethyl-benzenesulfonyl)-piperazine-2-carboxylic acid 4-isopropyl-benzylamide] | 100 to 1000 | > 1000
19 | CN1CCN(CC(=O)N2CCN(S(=O)(=O)c3ccc(I)cc3)[C@@H](C(=O)NCc3ccc(N(C)C)cc3)C2)CC1 [Example 346, 1-(4-iodo-benzenesulfonyl)-4-[2-(4-methyl-piperazin-1-yl)-acetyl]-piperazine-2-carboxylic acid 4-dimethylamino-benzylamide] | > 1000 | > 1000
20 | CC(C)c1ccc(CNC(=O)[C@H]2CN(C(=O)Nc3ccncc3)CCN2S(=O)(=O)c2ccc(C(F)(F)F)cc2)cc1 [Example 347, (R)-4-(4-trifluoromethyl-benzenesulfonyl)-piperazine-1,3-dicarboxylic acid 3-(4-isopropyl-benzylamide) 1-pyridin-4-ylamide] | 100 to 1000 | 100 to 1000
21 | CC(C)c1ccc(CNC(=O)[C@H]2CN(C(=O)Nc3nnco3)CCN2S(=O)(=O)c2ccc(C(F)(F)F)cc2)cc1 [Example 348, (R)-4-(4-trifluoromethyl-benzenesulfonyl)-piperazine-1,3-dicarboxylic acid 3-(4-isopropyl-benzylamide) 1-[1,3,4]oxadiazol-2-ylamide] | 100 to 1000 | 100 to 1000
22 | CC(C)c1ccc(CNC(=O)[C@H]2CN(c3cc(C(=O)O)ccn3)CCN2S(=O)(=O)c2ccc(C(F)(F)F)cc2)cc1 [Example 349, 2-[(R)-3-(4-isopropyl-benzylcarbamoyl)-4-(4-trifluoromethyl-benzenesulfonyl)-piperazin-1-yl]-isonicotinic acid trifluoroacetate] | 100 to 1000 | > 1000
23 | CC(C)c1ccc(S(=O)(=O)N2CCN(C(N)=O)CC2C(=O)NCc2ccc(C(F)(F)F)cc2)cc1 (stereo not drawn) [Example 350, 4-(4-isopropyl-benzenesulfonyl)-piperazine-1,3-dicarboxylic acid 1-amide 3-(4-trifluoromethyl-benzylamide)] | > 1000 | > 1000
24 | CC(=O)N1CCN(S(=O)(=O)c2cc(Cl)cc(Cl)c2)C(C(=O)NCc2ccc(C(F)(F)F)cc2)C1 (stereo not drawn) [Example 351, 4-acetyl-1-(3,5-dichloro-benzenesulfonyl)-piperazine-2-carboxylic acid 4-trifluoromethyl-benzylamide] | > 1000 | > 1000
